Assay results from US20070225335A1, “Pyrazole Derivatives for Treating Condit Ions Mediated by Activation of the Adeno Sine A2B or A3 Receptor” (priority 2004, published 2007).

Biological target: T1, human adenosine A2b receptor (Homo sapiens, UniProt P29275)
T1 construct: expressed in transfected cells; host or cells: CHO (Chinese Hamster Ovary) cells co-transfected with the reporter plasmid pCRE-LUCI
T1 sequence (P29275 1-332): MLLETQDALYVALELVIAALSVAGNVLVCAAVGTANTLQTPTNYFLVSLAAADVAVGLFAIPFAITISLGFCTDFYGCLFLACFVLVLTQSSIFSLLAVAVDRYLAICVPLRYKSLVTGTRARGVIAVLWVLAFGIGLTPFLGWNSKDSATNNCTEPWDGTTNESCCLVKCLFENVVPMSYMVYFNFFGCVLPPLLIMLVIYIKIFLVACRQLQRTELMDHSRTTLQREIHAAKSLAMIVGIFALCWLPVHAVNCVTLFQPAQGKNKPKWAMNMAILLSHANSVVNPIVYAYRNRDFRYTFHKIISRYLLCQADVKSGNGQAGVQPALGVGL
Experiment: Adenosine A2b receptor reporter gene assay (luciferase, CHO-A2b cells, NECA agonist)
Format: cell-based
Conditions: CHO cells with pCRE-LUCI and human A2b receptor; shift of NECA concentration-response curve; antagonist at 100 nM or 1 μM; KB=[antagonist]/(concentration ratio−1)
Experimental: Adenosine A2b Receptor Reporter Gene Assay a) Culturing of Chinese Hamster Ovary (CHO) A2b Cell Line
CHO cells transfected with a Luciferase-expressing reporter plasmid (pCRE-LUCI) and with a plasmid carrying the human adenosine A2b receptor structural gene (pA2bRCV) are routinely cultured in Dulbecco's Modified Eagle Medium (DMEM)—supplemented with 10% v/v fetal calf serum (FCS), 2 mM L-glutamine, 0.4 mg/ml L-proline, 1 nM sodium selenite, 0.5 mg/ml Hygromycin B and 1 mg/ml Geneticin—at 37° C., 5% CO2 and 100% humidity. The cells are left to grow to confluence for 4-5 days. The cells obtained are passaged using trypsin/EDTA and split at a ratio of 1 in 5. […]
b) Preparation of cells for assay […]
5′-N-ethylcarboxamidoadenosine (NECA), an adenosine A2b agonist, is prepared as a […] solution in DMSO and then diluted to 100 μM with Assay Buffer. […] 100 μl of Steady-Glo, a Luciferase assay substrate from Promega, is added to all wells to lyse the cells and generate luminescence in proportion to the amount of Lucifrease produced. The plates are left for a minimum of 5 minutes before being read on the luminescence program of a Topcount NXT microplate scintillation counter (ex Packard). […]

`O=C(Nc1cccnc1)c1cc(-c2ccncc2)n(-c2cccc(F)c2)n1` [Example 33, 1-(3-Fluoro-phenyl)-5-pyridin-4-yl-1H-pyrazole-3-carboxylic acid pyridin-3-ylamide] showed a Kb of 188 nM.

Molecule `N#Cc1ccc(NC(=O)c2cnn(-c3cccc(F)c3)c2-c2ccncc2)cc1` [Example 4, 1-(3-Fluoro-phenyl)-5-pyridin-4-yl-1H-pyrazole4-carboxylic acid (4-cyano-phenyl)-amide] has a Kb of 139 nM.
